Source: patent US6903081B2, “Phosphoramidates and methods therefor” (Purdue Research Foundation, priority 2000, dated 2005)

Assay: Chemical activation by sodium dithionite reduction monitored by 31P nmr
Format: physicochemical
Conditions: sodium dithionite in aqueous buffer/acetonitrile at 37° C.
Experimental: The thymidine phosphoramidate was activated by reduction of the nitrofuryl group with sodium dithionite in aqueous buffer/acetonitrile at 37° C., and the reaction was monitored by ^31P nmr.

Cc1cn([C@H]2C[C@H](O)[C@@H](COP(N)(=O)O)O2)c(=O)[nH]c1=O [thymidine phosphoramidate]
time until the phosphoramidate anion resonance had disappeared (thymidine-5′-phosphate exclusive product): ten
